# In patent publication EP0170019A1, “Carbapenems having an ether group at position 4” (F. HOFFMANN-LA ROCHE & CO. Aktiengesellschaft, priority 1984, dated 1986):
# What was measured:
# Assay in all cases: Minimal inhibitory concentration (MHK) on DST agar
# Assay type in all cases: cell-based
# [1] = test system: Acinetobacter anitr. 5I-156; conditions: ANITR.5I156
# Excerpt: (§1) Die minimalen Hemmkonzentrationen (MHK) der (4S,5S,6S)--6-[(R)-1-Hydroxyäthyl]-4-methoxy-7-oxo -1-azabicyclo-[3.2.0]hept-2-en-2-carbonsäure (Verbindung A), der (4R,5S,-6S)-6-[(R)-1-Hydroxyäthyl]-3-[[(S)-1-(1-iminoäthyl) -3-pyrrolidinyl]thio]-4-methoxy-7-oxo -1-azabicyclo[3.2.0]-hept-2-en -2-carbonsäure (Verbindung B), der (4R.5S,6S)-4--Aethoxy-6-[(R)-1-hydroxyäthyl]-3-[(S) -3-pyrrolidinyl- thio]-7-oxo-1-azabicyclo[3.2.0]hept-2-en -2-carbonsäure (Verbindung C) und der (4R,5S,6S)-4-Aethoxy-6-[(R)-1--hydroxyäthyl]-3-[[(S)-1 -(1-iminoäthyl)-3-pyrrolidinyl]-thio]-7-oxo-1 -azabicyclo[3.2.0]hept-2-en-2-carbonsäure (Verbindung D) gegen eine Reihe pathogener Mikroorganismen wurden auf DST-Agar (Diagnostic Sensitivity Test Agar) bestimmt. Die erhaltenen Resultate sind in der nachfolgenden Tabelle aufgeführt:
# (§2) Die ß-Lactamase produzierenden Organismen sind mit einem ^* bezeichnet.
# [2] = test system: Staph. aureus 6538; conditions: Staphylococcus aureus
# Excerpt: as §1, §2
# [3] = test system: Strept. faecalis 6; conditions: Enterococcus faecalis
# Excerpt: as §1, §2
# [4] = test system: Enterobacter cloacae 15M*; conditions: Enterobacter cloacae 15M* (ß-Lactamase producing)
# Excerpt: as §1, §2
# [5] = test system: Pseudomonas aer. BA*; conditions: Pseudomonas aer. BA* (ß-Lactamase producing)
# Excerpt: as §1, §2
# [6] = test system: Pseudomonas aer. 1559E*; conditions: Pseudomonas aer. 1559E* (ß-Lactamase producing)
# Excerpt: as §1, §2
# [7] = test system: E. coli TEM 1*; conditions: Escherichia coli, read-out: MHK
# Excerpt: as §1, §2
# [8] = test system: Prot. mirabilis 29H; conditions: Proteus mirabilis
# Excerpt: as §1, §2
# [9] = test system: Serratia marcescens 69438
# Excerpt: as §1, §2
# [10] = test system: E. coli 1527 E*; conditions: Escherichia coli, E. coli 1527 E* (ß-Lactamase producing)
# Excerpt: as §1, §2
# [11] = test system: Salmonella typh. BA
# Excerpt: as §1, §2
# [12] = test system: Enterobacter cloacae 908*; conditions: Enterobacter cloacae 908* (ß-Lactamase producing)
# Excerpt: as §1, §2
# [13] = test system: Prot. vulgaris 1028*; conditions: Proteus vulgaris, Prot. vulgaris 1028* (ß-Lactamase producing)
# Excerpt: as §1, §2
# [14] = test system: Klebs. pneumoniae 418*; conditions: Klebsiella pneumoniae, Klebs. pneumoniae 418* (ß-Lactamase producing)
# Excerpt: as §1, §2
# [15] = test system: E. coli 1346; conditions: Escherichia coli
# Excerpt: as §1, §2
# [16] = test system: Staph. aureus 887*; conditions: Staphylococcus aureus, Staph. aureus 887* (ß-Lactamase producing)
# Excerpt: as §1, §2
# [17] = test system: Serratia marcescens 803/15*; conditions: Serratia marcescens 803/15* (ß-Lactamase producing)
# Excerpt: as §1, §2
# [18] = test system: E. coli 25922; conditions: Escherichia coli
# Excerpt: as §1, §2
# [19] = test system: Prot. mirabilis 2117*; conditions: Proteus mirabilis, Prot. mirabilis 2117* (ß-Lactamase producing)
# Excerpt: as §1, §2
# [20] = test system: Klebs. aerogenes 1082E*; conditions: Klebsiella aerogenes, Klebs. aerogenes 1082E* (ß-Lactamase producing)
# Excerpt: as §1, §2
Compound,MIC [1],MIC [2],MIC [3],MIC [4],MIC [5],MIC [6],MIC [7],MIC [8],MIC [9],MIC [10],MIC [11],MIC [12],MIC [13],MIC [14],MIC [15],MIC [16],MIC [17],MIC [18],MIC [19],MIC [20]
"CCO[C@H]1C(S[C@H]2CCN(C(C)=N)C2)=C(C(=O)O)N2C(=O)[C@H]([C@@H](C)O)[C@@H]12 [Verbindung D, (4R,5S,6S)-4-Aethoxy-6-[(R)-1--hydroxyäthyl]-3-[[(S)-1-(1-iminoäthyl)-3-pyrrolidinyl]-thio]-7-oxo-1-azabicyclo[3.2.0]hept-2-en-2-carbonsäure]",2 µg/mL,0.25 µg/mL,32 µg/mL,4 µg/mL,64 µg/mL,64 µg/mL,0.5 µg/mL,32 µg/mL,8 µg/mL,1 µg/mL,2 µg/mL,4 µg/mL,16 µg/mL,2 µg/mL,1 µg/mL,0.5 µg/mL,8 µg/mL,2 µg/mL,16 µg/mL,2 µg/mL
"CO[C@H]1C=C(C(=O)O)N2C(=O)[C@H]([C@@H](C)O)[C@@H]12 [Verbindung A, (4S,5S,6S)--6-[(R)-1-Hydroxyäthyl]-4-methoxy-7-oxo-1-azabicyclo-[3.2.0]hept-2-en-2-carbonsäure]",2 µg/mL,0.5 µg/mL,32 µg/mL,1 µg/mL,32 µg/mL,> 32 µg/mL,1 µg/mL,8 µg/mL,2 µg/mL,0.5 µg/mL,1 µg/mL,1 µg/mL,4 µg/mL,0.5 µg/mL,0.5 µg/mL,1 µg/mL,2 µg/mL,1 µg/mL,4 µg/mL,1 µg/mL
"CCO[C@H]1C(S[C@H]2CCNC2)=C(C(=O)O)N2C(=O)[C@H]([C@@H](C)O)[C@@H]12 [Verbindung C, (4R.5S,6S)-4--Aethoxy-6-[(R)-1-hydroxyäthyl]-3-[(S) -3-pyrrolidinyl-thio]-7-oxo-1-azabicyclo[3.2.0]hept-2-en-2-carbonsäure]",1 µg/mL,0.25 µg/mL,32 µg/mL,1 µg/mL,32 µg/mL,64 µg/mL,0.5 µg/mL,32 µg/mL,8 µg/mL,0.25 µg/mL,0.5 µg/mL,1 µg/mL,32 µg/mL,2 µg/mL,0.5 µg/mL,0.5 µg/mL,4 µg/mL,0.5 µg/mL,16 µg/mL,2 µg/mL
"CO[C@H]1C(S[C@H]2CCN(C(C)=N)C2)=C(C(=O)O)N2C(=O)[C@H]([C@@H](C)O)[C@@H]12 [Verbindung B, (4R,5S,-6S)-6-[(R)-1-Hydroxyäthyl]-3-[[(S)-1-(1-iminoäthyl) -3-pyrrolidinyl]thio]-4-methoxy-7-oxo-1-azabicyclo[3.2.0]-hept-2-en-2-carbonsäure]",0.4 µg/mL,0.1 µg/mL,12.5 µg/mL,0.8 µg/mL,25 µg/mL,25 µg/mL,–,25 µg/mL,3.1 µg/mL,0.4 µg/mL,0.8 µg/mL,0.8 µg/mL,12.5 µg/mL,0.4 µg/mL,0.4 µg/mL,0.2 µg/mL,3.1 µg/mL,0.8 µg/mL,12.5 µg/mL,0.8 µg/mL
